Consider four compounds from publication PMC5829263, “Homoarginine and inhibition of human arginase activity: kinetic characterization and biological relevance” (Scientific Reports, 2018).

“Also recorded” adds a separate entry of the source. Like-named read-outs stand apart in the source and are kept apart here.

Assay [1] has as its target T1, recombinant human arginase 1 (Homo sapiens, UniProt P05089).
T1 sequence (P05089 1-322): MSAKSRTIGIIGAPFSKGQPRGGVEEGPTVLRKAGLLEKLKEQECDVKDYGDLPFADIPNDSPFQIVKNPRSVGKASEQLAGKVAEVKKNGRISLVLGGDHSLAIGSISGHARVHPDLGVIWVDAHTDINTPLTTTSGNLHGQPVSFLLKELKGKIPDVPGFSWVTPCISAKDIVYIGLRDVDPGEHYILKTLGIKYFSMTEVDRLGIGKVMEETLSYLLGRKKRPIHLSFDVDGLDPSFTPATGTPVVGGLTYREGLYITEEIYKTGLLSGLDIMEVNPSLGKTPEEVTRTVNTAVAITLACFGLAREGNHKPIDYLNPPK
Put plainly: Arginase 1 inhibition, UPLC-MS measurement of ARG to ORN conversion in HEK293T cell lysate.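 On all read-outs here: arginase 1–expressing HEK293T lysate at 0.05 mg/mL in pH 7.4 phosphate buffer, inhibitor preincubated 5 min with enzyme, then reaction started by adding ARG.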 As to conditions: for % of control activity at the corresponding [Inhibitor] ± SE: arginase 1; for % of control activity at the corresponding [Inhibitor] ± SE / remaining activity at 1 µM / remaining activity at 10 µM / remaining activity at 100 µM / remaining activity at 1000 µM / remaining activity at 10000 µM / remaining activity at 0.1 µM: mean of two experiments; for arginase 1 inhibitor assessment in words: at the concentrations tested, both ARG concentrations; for remaining activity at 1 µM / remaining activity at 10 µM / remaining activity at 100 µM / remaining activity at 1000 µM / remaining activity at 10000 µM / remaining activity at 0.1 µM: read-out: % of control activity at the corresponding [Inhibitor] ± SE, arginase 1; for remaining activity at 10000 µM: inhibitor 10,000 µM.
Description: (§1) Following a 5-min pre-equilibration period reactions were initiated by the addition of the cell lysate solution in 0.05 M phosphate buffer to a pre-equilibrated aqueous solution of the substrate (ARG).
(§2) The samples were vortex mixed (20 sec) and cooled in an ice/water bath for 10 min prior to centrifugation (5 min, 18,000 × g, room temperature) to precipitate the proteins. An aliquot of the supernatant layer was diluted with a 7:3 mobile phase A/mobile phase B solution into glass UPLC vial inserts.
(§3) Incubation mixtures comprised of HEK293T cell lysate expressing arginase 1 (0.05 mg/mL) or arginase 2 (0.1 mg/mL), phosphate buffer (0.05 M, pH 7.4), inhibitor (0, 0.1, 1, 10, 100, 1000 or 10000 μM) and ARG (0.1, 2 or 3 mM). Following a 5-min pre-incubation of the potential inhibitor with arginase 1 or arginase 2, reactions were initiated by the addition of a pre-equilibrated solution of the substrate ARG.
Ki values were derived from fitting the competitive inhibition equation to experimental data. Ki data are the mean of three singlicate experiments.

The target in assay [2] is T2, recombinant human arginase 2 (Homo sapiens, UniProt P78540).
T2 sequence (P78540 23-354): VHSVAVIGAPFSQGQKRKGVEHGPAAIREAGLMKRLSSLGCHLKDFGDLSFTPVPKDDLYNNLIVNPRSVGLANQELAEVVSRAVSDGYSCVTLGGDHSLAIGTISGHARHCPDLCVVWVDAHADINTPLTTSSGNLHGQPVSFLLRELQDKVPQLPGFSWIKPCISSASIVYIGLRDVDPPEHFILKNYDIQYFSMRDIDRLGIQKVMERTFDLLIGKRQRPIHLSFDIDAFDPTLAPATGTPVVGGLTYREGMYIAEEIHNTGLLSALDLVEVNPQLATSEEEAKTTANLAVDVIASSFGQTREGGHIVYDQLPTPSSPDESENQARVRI
Description: Arginase 2 inhibition, UPLC-MS measurement of ARG to ORN conversion in HEK293T cell lysate.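 On all read-outs here: HEK293T lysate carrying arginase 2 at 0.1 mg/mL in 0.05 M phosphate buffer pH 7.4, inhibitor preincubated with enzyme 5 min before ARG addition started the reaction.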 As to conditions: for % of control activity at the corresponding [Inhibitor] ± SE: arginase 2; for % of control activity at the corresponding [Inhibitor] ± SE / remaining activity at 1 µM / remaining activity at 10 µM / remaining activity at 100 µM / remaining activity at 1000 µM / remaining activity at 10000 µM / remaining activity at 0.1 µM: mean of two experiments; for arginase 2 inhibitor assessment in words: at the concentrations tested; for remaining activity at 1 µM / remaining activity at 10 µM / remaining activity at 100 µM / remaining activity at 1000 µM / remaining activity at 10000 µM / remaining activity at 0.1 µM: read-out: % of control activity at the corresponding [Inhibitor] ± SE, arginase 2; for remaining activity at 10000 µM: inhibitor 10,000 µM.
Description: as §1, §2, §3
Sample were diluted 3:17 in mobile phase solution prior injection.

As for `CN(C)C(N)=NCCC[C@H](N)C(=O)O` [ADMA, asymmetric dimethylarginine], the “% of control activity at the corresponding [Inhibitor] ± SE” value (“% of control activity … [Inhibitor] ± SE” below) worked out at 102 ± 9% in assay [1] (ARG 100 µM, inhibitor 0.1 µM); 109 ± 4% in assay [1] (ARG 100 µM, inhibitor 1 µM); 120 ± 12% in assay [1] (ARG 100 µM, inhibitor 10 µM); 109 ± 8% in assay [1] (ARG 100 µM, inhibitor 100 µM); 87 ± 1% in assay [1] (ARG 100 µM, inhibitor 1,000 µM); 98 ± 7% in assay [1] (ARG 3 mM, inhibitor 0.1 µM). The “% of control activity … [Inhibitor] ± SE” value in assay [1] (ARG 3 mM, inhibitor 1 µM) was found to be 89 ± 2%; in assay [1] (ARG 3 mM, inhibitor 10 µM), 90 ± 1%; in assay [1] (ARG 3 mM, inhibitor 100 µM), 86 ± 4%; in assay [1] (ARG 3 mM, inhibitor 1,000 µM) it was 69 ± 4%; in assay [2] (ARG 100 µM, inhibitor 0.1 µM), 115 ± 7%; in assay [2] (ARG 100 µM, inhibitor 1 µM), 112 ± 13%. Further, the “% of control activity … [Inhibitor] ± SE” value came to 109 ± 9% in assay [2] (ARG 100 µM, inhibitor 10 µM); 94 ± 14% in assay [2] (ARG 100 µM, inhibitor 100 µM); 104 ± 3% in assay [2] (ARG 100 µM, inhibitor 1,000 µM); 80 ± 7% in assay [2] (ARG 2 mM, inhibitor 0.1 µM); 84 ± 12% in assay [2] (ARG 2 mM, inhibitor 1 µM); 92 ± 12% in assay [2] (ARG 2 mM, inhibitor 10 µM). Besides, the “% of control activity … [Inhibitor] ± SE” value is recorded as 90 ± 14% in assay [2] (ARG 2 mM, inhibitor 100 µM) and 87 ± 15% in assay [2] (ARG 2 mM, inhibitor 1,000 µM). The “arginase 1 inhibitor assessment in words” value in assay [1] is reported as “poor arginase 1 inhibitors”. The “arginase 2 inhibitor assessment in words” value in assay [2] is “poor arginase inhibitors”.
As for `NCCCCN=C(N)N` [AG, agmatine], in assay [1], the “arginase 1 inhibitor assessment in words” value is given as “poor arginase 1 inhibitors; also recorded: no significant inhibition”. In addition, the remaining activity at 1 µM in assay [1] (ARG 100 µM, inhibitor 1 µM) worked out at 94 ± 7%; in assay [1] (ARG 3 mM, inhibitor 1 µM) it was 84 ± 13%; in assay [2] (ARG 100 µM, inhibitor 1 µM) it was 103 ± 4%; in assay [2] (ARG 2 mM, inhibitor 1 µM), 104 ± 4%. Further, the remaining activity at 10 µM in assay [1] (ARG 100 µM, inhibitor 10 µM) amounted to 82 ± 5%; in assay [1] (ARG 3 mM, inhibitor 10 µM), 100 ± 3%; in assay [2] (ARG 100 µM, inhibitor 10 µM), 98 ± 7%; in assay [2] (ARG 2 mM, inhibitor 10 µM), 96 ± 3%. For the same compound, the remaining activity at 100 µM stood at 110 ± 24% in assay [1] (ARG 100 µM, inhibitor 100 µM); 100 ± 8% in assay [1] (ARG 3 mM, inhibitor 100 µM); 92 ± 6% in assay [2] (ARG 100 µM, inhibitor 100 µM); 103 ± 3% in assay [2] (ARG 2 mM, inhibitor 100 µM). The remaining activity at 1000 µM in assay [1] (ARG 100 µM, inhibitor 1,000 µM) turned out to be 84 ± 8%; in assay [1] (ARG 3 mM, inhibitor 1,000 µM) it was 98 ± 13%; in assay [2] (ARG 100 µM, inhibitor 1,000 µM), 78 ± 5%; in assay [2] (ARG 2 mM, inhibitor 1,000 µM), 96 ± 3%. For the same compound, the remaining activity at 10000 µM in assay [1] (ARG 100 µM) was 72 ± 3%; in assay [1] (ARG 3 mM), 78 ± 7%; in assay [2] (ARG 100 µM), 58 ± 1%; in assay [2] (ARG 2 mM) it was 87 ± 8%. Further, the “arginase 2 inhibitor assessment in words” value in assay [2] is on record as “poor inhibitors; also recorded: no significant inhibition”.
`[H]/N=C(/NC)NCCC[C@H](N)C(=O)O` [L-NMMA, NG-Monomethyl-L-arginine]: the remaining activity at 0.1 µM in assay [1] (ARG 100 µM, inhibitor 0.1 µM) was determined as 95 ± 2%; in assay [1] (ARG 3 mM, inhibitor 0.1 µM), 106 ± 15%; in assay [2] (ARG 100 µM, inhibitor 0.1 µM), 101 ± 1%; in assay [2] (ARG 2 mM, inhibitor 0.1 µM), 96 ± 7%. Also, the remaining activity at 1 µM in assay [1] (ARG 100 µM, inhibitor 1 µM) is 91 ± 6%; in assay [1] (ARG 3 mM, inhibitor 1 µM), 107 ± 11%; in assay [2] (ARG 100 µM, inhibitor 1 µM), 103 ± 2%; in assay [2] (ARG 2 mM, inhibitor 1 µM), 105 ± 4%. Moreover, the remaining activity at 10 µM is 104 ± 11% in assay [1] (ARG 100 µM, inhibitor 10 µM); 95 ± 9% in assay [1] (ARG 3 mM, inhibitor 10 µM); 106 ± 1% in assay [2] (ARG 100 µM, inhibitor 10 µM); 109 ± 8% in assay [2] (ARG 2 mM, inhibitor 10 µM). The remaining activity at 100 µM in assay [1] (ARG 100 µM, inhibitor 100 µM) turned out to be 95 ± 6%; in assay [1] (ARG 3 mM, inhibitor 100 µM) it was 94 ± 8%; in assay [2] (ARG 100 µM, inhibitor 100 µM), 106 ± 9%; in assay [2] (ARG 2 mM, inhibitor 100 µM), 104 ± 3%. Also, the remaining activity at 1000 µM in assay [1] (ARG 100 µM, inhibitor 1,000 µM) was 116 ± 1%; in assay [1] (ARG 3 mM, inhibitor 1,000 µM) it was 97 ± 11%; in assay [2] (ARG 100 µM, inhibitor 1,000 µM) it was 111 ± 4%; in assay [2] (ARG 2 mM, inhibitor 1,000 µM) it was 118 ± 4%.
In the case of `O=C(O)[C@@H]1CCCN1` [PRO, proline], in assay [1], the “arginase 1 inhibitor assessment in words” value was “poor arginase 1 inhibitors; also recorded: no significant inhibition”. Also, the remaining activity at 1 µM is 115 ± 1% in assay [1] (ARG 100 µM, inhibitor 1 µM); 100 ± 1% in assay [1] (ARG 3 mM, inhibitor 1 µM); 92 ± 10% in assay [2] (ARG 100 µM, inhibitor 1 µM); 98 ± 1% in assay [2] (ARG 2 mM, inhibitor 1 µM). Further, the remaining activity at 10 µM was 110 ± 1% in assay [1] (ARG 100 µM, inhibitor 10 µM); 113 ± 26% in assay [1] (ARG 3 mM, inhibitor 10 µM); 99 ± 1% in assay [2] (ARG 100 µM, inhibitor 10 µM); 97 ± 7% in assay [2] (ARG 2 mM, inhibitor 10 µM). In addition, the remaining activity at 100 µM in assay [1] (ARG 100 µM, inhibitor 100 µM) came to 110 ± 6%; in assay [1] (ARG 3 mM, inhibitor 100 µM), 106 ± 19%; in assay [2] (ARG 100 µM, inhibitor 100 µM), 99 ± 2%; in assay [2] (ARG 2 mM, inhibitor 100 µM), 96 ± 12%. Also, the remaining activity at 1000 µM in assay [1] (ARG 100 µM, inhibitor 1,000 µM) stood at 104 ± 3%; in assay [1] (ARG 3 mM, inhibitor 1,000 µM), 100 ± 17%; in assay [2] (ARG 100 µM, inhibitor 1,000 µM), 92 ± 7%; in assay [2] (ARG 2 mM, inhibitor 1,000 µM), 98 ± 10%. Moreover, the remaining activity at 10000 µM in assay [1] (ARG 100 µM) is 54 ± 7%; in assay [1] (ARG 3 mM), 79 ± 20%; in assay [2] (ARG 100 µM), 77 ± 16%; in assay [2] (ARG 2 mM), 75 ± 8%. Further, the “arginase 2 inhibitor assessment in words” value in assay [2] is “poor inhibitors; also recorded: no significant inhibition”.
